Experimental data reported in patent US6333313A, “Clinical use of oxytocin alone or in combination to treat bone disorders” (Board of Regents, The University of Texas System, priority 1999, dated 2001).
Values belong to the molecule of their own block, whether it stands above or below them. Starred links: 1 amine or outer side, 2 acyl side, 3 side chain; linkers in the order of their positions; H or OH if unused. Positions of bridges follow the written chain, without caps; N, C: chain ends. Non-standard residues stand in square brackets, D forms with d. Residues, ends and D or L forms follow the SMILES beside them. No end group written: not given here. X1 = O=C(CC1(S[*:2])CCCCC1)[*:1]; Orn = NCCC[C@H](N)C(=O)O

How the values were obtained:
[1] = system: bone; uterus; settings: rats; compared with estradiol; cited from earlier work
[2] = target: T1, OTR (Homo sapiens, UniProt P30559); assay: Intracellular calcium levels, Saos-2 cells; type: cell-based; settings: 10 nM OT
T1 sequence (P30559 1-389): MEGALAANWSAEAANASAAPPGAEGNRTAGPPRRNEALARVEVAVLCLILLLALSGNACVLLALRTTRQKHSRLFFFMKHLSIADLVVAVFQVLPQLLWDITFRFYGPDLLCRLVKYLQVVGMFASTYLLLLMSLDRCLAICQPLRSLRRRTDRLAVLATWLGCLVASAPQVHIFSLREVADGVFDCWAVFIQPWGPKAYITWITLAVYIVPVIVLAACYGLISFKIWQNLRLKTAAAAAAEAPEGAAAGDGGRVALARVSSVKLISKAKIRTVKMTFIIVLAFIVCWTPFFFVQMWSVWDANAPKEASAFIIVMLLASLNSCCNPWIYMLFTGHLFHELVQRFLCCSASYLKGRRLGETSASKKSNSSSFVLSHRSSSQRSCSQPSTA
Description: (§1) FIG. 3A, FIG. 3B and FIG. 3C Intracellular calcium transients after 10 nM oxytocin treatment. (FIG. 3A.) Undifferentiated osteoblastic cells; (FIG. 3B.) differentiated osteoblastic cells; and (FIG. 3C.) Saos-2 cells. Cells were incubated at 37C and treated in the following manner; 100 nM OTA for 1 min, […], wash cells 3 times to remove bound antagonist, 10 min recovery, and then 10 nM OT treatment.
(§2) Cell Culture Conditions: Human osteosarcoma cells (Saos-2) cells were obtained from the ATCC (Rockville, Md.). Human osteoblasts (Cheng et al., 1994; Civitelli et al., 1993) were prepared from explants of cultured rib trabecular. These cells were grown in mineralizing media consisting of DMEM supplemented with 10% fetal bovine serum (FBS), 2% penicillin/streptomycin, dexamethasone (100 nM), ascorbate (50 μg/ml, and β3-glycerophosphate (10 μg/ml) in a humidified tissue culture incubator at 37C under an atmosphere of 5% CO2 and 95% air. These conditions accelerate the osteoblastic modulation of undifferentiated human trabecular bone cells and the production of osteogenic mineralizeable collagen matrix (Cheng et al., Civitelli et al., 1993). To retain undifferentiated osteoblastic phenotype, cells were cultured in the absence of dexamethasone, ascorbate, and β-glycerophosphate. […]

[3] = system: Undifferentiated and differentiated osteoblastic cells; assay: PGE2 levels in media of OT-stimulated cells (EIA); type: cell-based, human; settings: 100 nM OT, over nontreated controls
Description: FIG. 4A and FIG. 4B PGE2 levels in media of cells stimulated with 100 nM OT. (FIG. 4A.) Undifferentiated osteoblastic cells and (FIG. 4B.) differentiated osteoblastic cells. Each point is the mean +/- SE of triplicates. * indicates P<0.05 compared to matched basal control.
Prostaglandin E2 (PGE2) levels. PGE2 levels in media were measured using a PGE2 enzyme immunoassay (EIA) system from Amersham Life Sciences (Arlington Heights, Ill.) as previously described (Copland, et al., 1999). The sensitivity of the assay was 2.5 pg/ml with an intraassay coefficient of variation of 6.3% and the interassay coefficient of variation of 6.9%.
Undifferentiated and differentiated osteoblastic cells were tested to determine whether OT could stimulate PGE2 synthesis. Undifferentiated osteoblastic cells that were allowed to come to confluence and maintained for 2 weeks in either 10% FBS/DMEM or in mineralizing medium (differentiated osteoblast), synthesized and released PGE2 into the media in response to 100 nM OT (FIG. 4A and FIG. 4B, respectively).

[4] = target: T1, OTR; assay: Intracellular calcium levels, undifferentiated osteoblastic cells; type: cell-based; design: Undifferentiated or differentiated human trabecular bone cells with osteogenic capacity in primary culture express oxytocin receptors (OTRs); endogenous in cells; host or cells: primary human osteoblastic cells from rib trabecular bone explants (undifferentiated, or differentiated in mineralizing medium); settings: 10 nM OT
Description: as §1, §2

[5] = target: T1, OTR; assay: Intracellular calcium levels, differentiated osteoblastic cells; type: cell-based; design: Undifferentiated or differentiated human trabecular bone cells with osteogenic capacity in primary culture express oxytocin receptors (OTRs); endogenous in cells; host or cells: primary human osteoblastic cells from rib trabecular bone explants (undifferentiated, or differentiated in mineralizing medium); settings: 10 nM OT
Description: as §1, §2

[6] = system: rat osteogenic cells; settings: in vitro; cited from earlier work
[7] = system: bone formation; settings: in vivo, high dose; cited from earlier work
[8] = system: bone formation; settings: systemic administration; cited from earlier work
[9] = target: T1, OTR; assay: Whole cell OTR ligand binding, Scatchard analysis, undifferentiated osteoblastic cells; design: Undifferentiated or differentiated human trabecular bone cells with osteogenic capacity in primary culture express oxytocin receptors (OTRs); endogenous in cells; host or cells: primary human osteoblastic cells from rib trabecular bone explants (undifferentiated, or differentiated in mineralizing medium); settings: +/- SE
Description: (§3) Cell Culture Conditions: Human osteosarcoma cells (Saos-2) cells were obtained from the ATCC (Rockville, Md.). Human osteoblasts (Cheng et al., 1994; Civitelli et al., 1993) were prepared from explants of cultured rib trabecular. These cells were grown in mineralizing media consisting of DMEM supplemented with 10% fetal bovine serum (FBS), 2% penicillin/streptomycin, dexamethasone (100 nM), ascorbate (50 μg/ml, and β3-glycerophosphate (10 μg/ml) in a humidified tissue culture incubator at 37C under an atmosphere of 5% CO2 and 95% air. These conditions accelerate the osteoblastic modulation of undifferentiated human trabecular bone cells and the production of osteogenic mineralizeable collagen matrix (Cheng et al., Civitelli et al., 1993). To retain undifferentiated osteoblastic phenotype, cells were cultured in the absence of dexamethasone, ascorbate, and β-glycerophosphate. Osteoblast phenotype was verified by alkaline phosphatase activity and mineralization of the extracellular matrix using von Kossa staining. The cells were used on the first passage following initial plating.
(§4) Determination of OTR ligand binding: OTA was monoiodinated as previously described (Hinko and Soloff, 1992). […] The concentration of cellular DNA was determined in parallel, using the Hoechst dye H 33258 and a Hoefer DyNA Quant fluorometer according to the manufacturer's instructions.

[10] = target: T1, OTR; assay: Whole cell OTR ligand binding, Scatchard analysis, differentiated osteoblastic cells; design: Undifferentiated or differentiated human trabecular bone cells with osteogenic capacity in primary culture express oxytocin receptors (OTRs); endogenous in cells; host or cells: primary human osteoblastic cells from rib trabecular bone explants (undifferentiated, or differentiated in mineralizing medium)
Description: as §3, §4

[11] = target: T1, OTR; assay: Whole cell OTR ligand binding, Scatchard analysis, Saos-2 cells; design: Undifferentiated or differentiated human trabecular bone cells with osteogenic capacity in primary culture express oxytocin receptors (OTRs); endogenous in cells; host or cells: primary human osteoblastic cells from rib trabecular bone explants (undifferentiated, or differentiated in mineralizing medium)
Description: as §3, §4

[12] = system: cortical bone; settings: injections with mild exercise; old female rats; cited from earlier work
[13] = system: cortical bone; settings: ovariectomized rats; cited from earlier work
[14] = system: bone formation; settings: in vivo; cited from earlier work
[15] = system: rat osteoblastic cell; settings: combined with insulin-like growth factor-1; cited from earlier work

Molecule: Oc1ccc2c(c1)CC[C@H](c1ccccc1)[C@@H]2c1ccc(OCCN2CCCC2)cc1 [CP-336,156]
uterine-stimulating effects [1]: without the uterine-stimulating effects associated with estradiol

Molecule: CC[C@H](C)[C@@H]1NC(=O)[C@H](Cc2ccc(O)cc2)NC(=O)[C@@H](N)CSSC[C@@H](C(=O)N2CCC[C@H]2C(=O)N[C@@H](CC(C)C)C(=O)NCC(N)=O)NC(=O)[C@H](CC(N)=O)NC(=O)[C@H](CCC(N)=O)NC1=O [OT, oxytocin]
rise in [Ca2+]i [2]: responded within seconds to OT treatment with a rise in [Ca^2+ ]i
increase in PGE2 synthesis ([3]; 15 and 30 minutes): 2 fold
increase in PGE2 synthesis ([3]; by 1 h of OT stimulation): 4-6 fold
rise in [Ca2+]i [4]: responded within seconds to OT treatment with a rise in [Ca^2+ ]i
rise in [Ca2+]i [5]: responded within seconds to OT treatment with a rise in [Ca^2+ ]i

Molecule: substance P: a neuropeptide with wide distribution in central and peripheral nervous system (RPKPQQFFGLM; ends and bridges not checked; UniProt P20366 58-68, looked up)
cell proliferation [6]: increased cell proliferation in a dose dependent fashion

Molecule: C=C1/C(=C\C=C2/CCC[C@]3(C)[C@@H]([C@H](C)CCCC(C)(C)O)CC[C@@H]23)C[C@@H](O)C[C@@H]1O [1,25 dihydroxyvitamin D3]
bone formation [7]: stimulates bone formation

Molecule: IGF-1/IGF BP-3: insulin-like growth factor-1 combined with insulin-like growth factor binding protein-3
effect of IGF-1 on bone formation when combined with IGF BP-3 [8]: potentiated

Bmax [9]: 5.7+/-0.8 fmol/10 μg DNA
Kd ([9]; read-out: apparent Kd): 132 ± 27 pM
Bmax [10]: 12.3+/-1.4 fmol/10 μg DNA
Kd ([10]; read-out: apparent Kd): 175 ± 34 pM
Bmax [11]: 24.6+/-3.2 fmol/10 μg DNA
Kd ([11]; read-out: apparent Kd): 150 ± 28 pM
Molecule: CC[C@H](C)[C@@H]1NC(=O)[C@H](Cc2ccc(OC)cc2)NC(=O)CC2(CCCCC2)SSC[C@@H](C(=O)N2CCC[C@H]2C(=O)N[C@@H](CCCN)C(=O)N[C@@H](Cc2ccc(O)cc2)C(N)=O)NC(=O)[C@H](CC(N)=O)NC(=O)[C@H]([C@@H](C)O)NC1=O [{^125 I]OTA] (Y(Me)ITNCP[Orn]Y-NH2; linker N-5 via X1)

Molecule: Growth Hormone: growth hormone injections
formation and strength of cortical bone [12]: increase the formation and strength of cortical bone

B1: Parathyroid Hormone: parathyroid hormone (protein, UniProt P01270 32-115, looked up)
Parathyroid hormone: SVSEIQLMHNLGKHLNSMERVEWLRKKLQDVHNFVALGAPLAPRDAGSQRPRKKEDNVLVESHEKSLGEADKADVNVLTKAKSQ
modifications: Parathyroid hormone
femoral length and strength in cortical bone [13]: dose dependent increase

B2: Osteogenic Protein-1: osteogenic protein-1 (protein, UniProt P18075 293-431, looked up)
Bone morphogenetic protein 7: STGSKQRSQNRSKTPKNQEALRMANVAENSSSDQRQACKKHELYVSFRDLGWQDWIIAPEGYAAYYCEGECAFPLNSYMNATNHAIVQTLVHFINPETVPKPCCAPTQLNAISVLYFDDSSNVILKKYRNMVVRACGCH
new bone formation [14]: induces new bone formation
stimulation of rat osteoblastic cell differentiation and proliferation [15]: synergistic with insulin-like growth factor-1
